Data set [1] relates to 5/6 nephrectomized uremic rats. In words: Endothelial function (aortic ring relaxation) in 5/6 nephrectomized uremic rats. The format is in vivo, Sprague Dawley rats. Particulars: 5/6 NX rats; for acetylcholine-induced endothelial-dependent aortic relaxation / sodium nitroprusside (SNP)-induced endothelial-independent relaxation: 2-week treatment, aortic rings precontracted with PE. As to the method: The experimental conditions using the 5/6 (subtotal) nephrectomized rats were as described above. Twenty-four hours after the last dose, the animals were sacrificed, and the aorta tissues were harvested for the determination of endothelial function.
Rats were anesthetized with pentobarbital sodium (i.p., 35 mg/kg). Thoracic aortas were excised in a cold modified Krebs solution (see below) and a 3 mm aortic ring was suspended in 10 mL tissue baths under 0.5 grams of resting tension in a modified Krebs solution containing (g/L): NaCl 6.9169, KCl 0.3499, NaHCO3 2.0998, MgSO4 0.2901, KH2 PO4 0.1604, CaCl2 0.2663, glucose 1.9994, EDTA 0.026, equilibrated with 5% CO2-95% 02 (pH 7.4 at 37° C.). Aortas were sensitized by the addition of phenylephrine (PE, 3 μM) with 10 min washouts between intervals. Aortas were precontracted with PE (3 μM), and the endothelium-dependent vasodilator acetylcholine (ACh) was added in half-log increments (10^−9 mol/L-10^−4.5 mol/L) at 3-5 min intervals, allowing time for the effect of ACh to plateau. After a 60 min washout, aortas were precontracted with PE (3 μM) and subsequently treated with endothelial-independent vasodilator sodium nitroprusside (SNP; 10^−9 mol/L-10^−6 mol/L) at 3-5 min intervals, allowing time for the effect to plateau. Data were recorded with the BL-420F Data Acquisition & Analysis System.
ACh and SNP-induced relaxation were calculated as the % relaxation of the PE-induced precontraction. Differences in vascular function were determined using a two-way ANOVA, followed by a Bonferonni post-hoc test. […] SNP serves as a source of nitric oxide and induces relaxation via an endothelial-independent pathway.

In data set [2] the test system is 5/6 nephrectomized uremic rats. In words: Left ventricular hypertrophy in 5/6 nephrectomized uremic rats. Type of data set: in vivo, Sprague Dawley rats. As to conditions: 5/6 NX rats; for cardiomyocyte morphology: hematoxylin-eosin. As to the method: The experimental conditions using the 5/6 (subtotal) nephrectomized rats were as described above. Twenty-four hours after the last dose, the rats were anesthetized with pentobarbital sodium (35 mg/kg, i.p.). The animals were sacrificed by cervical dislocation. The hearts were taken and washed with cold saline. After removing the residual saline with filter paper, the weight of the freshly dissected hearts and left ventricles were measured, and the ratio of left ventricle weight to body weight (LVW/BW) and/or left ventricle weight to heart weight (LVW/HW) were calculated. Thereafter, the left ventricles were rapidly put into liquid nitrogen until ready for histological and immunohistochemical analysis.
To examine the cardiomyocyte morphology, the left ventricular tissue was fixed in a 4% formaldehyde-phosphate-buffered saline (pH 7.4) solution overnight. The samples were embedded in wax and cut into 4 μm sections. The sections were stained with hematoxylin-eosin and examined under a microscope.
To determine the diameter of cardiomyocytes, a previously published method was followed (Xiang et al., 2005, Am J Physiol Endocrinol Metab 288: E125-132). The sections of left ventricles were stained with FITC-labeled wheat germ agglutinin (1:5 dilution) for 2 h at room temperature and then examined under a fluorescence microscope to visualize the myocyte membrane. The relative size of the cardiomyocytes was quantified by measuring the diameter of the myocytes, which was the distance between the two plasma membranes of a cell in longitudinal section. The measurement was done using ImageJ software. Data were obtained from 30 cells randomly selected from 5-10 microscopic fields of left ventricle slides.
Group mean±SEM are presented. Differences between SHAM, vehicle, and treated animals were assessed using a t-test, a one-way ANOVA followed by a Dunnett's post-hoc test, or a two-way ANOVA, followed by a Bonferonni post-hoc test. Similar to the human CKD condition, the 5/6 (subtotal) nephrectomized rats are known to develop left ventricular hypertrophy (Wolf et al., 2000, Journal of Cardiovascular Pharmacology 36: S348-350). Some animals were sacrificed before treatment to evaluate the development of left ventricular hypertrophy.

Data set [3] concerns 5/6 nephrectomized uremic rats. The description is as above. Particulars: 5/6 NX rats, 0.16 and 0.64 μg/kg, LVH study. Type of data set: in vivo, Sprague Dawley rats.
Data set [4] has as its system 5/6 nephrectomized uremic rats. In words: Proteinuria in 5/6 nephrectomized uremic rats. Type of data set: in vivo, Sprague Dawley rats. As to conditions: 5/6 NX rats, 3×/week, i.p. for 2 weeks, before versus after treatment. As to the method:
The experimental conditions using the 5/6 (subtotal) nephrectomized rats were as described above. Urinary protein excretion was determined by urinary collection over a period of 24 h in metabolic cages at two time points: 24 h before the first dose and 24 hr after the last dose. Each animal was placed in a metabolic cage and urine was collected during a period of 24 h. Urinary protein concentration was determined by the biuret method (Morozova and Baryshnikova, 1991, Lab Delo 2:23-5). Total protein excretion per day was calculated by multiplying urinary protein concentration by total urine volume produced during the 24 h period.
Group mean±SEM are presented. Differences before versus after treatment were assessed using a t-test. Differences between SHAM, vehicle, and treated animals were assessed using a one-way ANOVA followed by a Dunnett's post-hoc test.

For data set [5], the system named is thrombospondin-1. In words: Thrombospondin-1 protein in human coronary artery smooth muscle cells (Western blot). Type of data set: cell-based. As to conditions: HCASMC, 48 h, FIG. 21A. How it is done:
(§1) Human coronary artery smooth muscle cells (HCASM) were incubated with Vida-5 or Vida-11 at different concentrations for 48 h and then were solubilized in 50 al of SDS-PAGE sample buffer. The protein content in each sample was determined by the bicinchoninic acid protein assay. Samples were resolved by SDS-PAGE using a 4-12% NuPAGE gel, and proteins were electrophoretically transferred to polyvinylidene fluoride membrane for Western blotting. The membrane was blocked for 1 h at 25° C. with 5% nonfat dry milk in phosphate buffered saline Tween-20 (PBS-T) and then incubated with a mouse anti-thrombospondin-1 monoclonal antibody (2,000-fold dilution), or a mouse anti-TM monoclonal antibody (2,000-fold dilution) in PBS-T overnight at 4° C.
(§2) The membrane was washed with PBS-T and incubated with a horseradish peroxidase-labeled anti-mouse antibody for 1 h at 25° C. The membrane was then incubated with Amersham ECL Plus Western Blotting Detection Reagents. Specific bands were visualized by the Multiimage II of Alpha Innotech imaging system. Band intensity was quantified using Spot Denso.
On the technique in general: A western blot detects proteins with antibodies after separation by electrophoresis.

The test system of data set [6] is thrombomodulin. In words: Thrombomodulin protein in human coronary artery smooth muscle cells (Western blot). Particulars: HCASMC, 48 h, FIG. 21B. Type of data set: cell-based. As to the method:
as §1, §2

Setting [7] is: 2 weeks of treatment, 8 weeks after surgery.

“Also recorded” adds a separate entry of the source.

As to `CCC(O)(CC)CCO[C@H](C)C1CCC2/C(=C/C=C3C[C@@H](O)C4(CC4)[C@H](O)C3)CCCC21C` (stereo partly drawn) [Vida-10, (4R,8R)-6-((E)-2-((1S,7αS)-1-((R)-1-(3-ethyl-3-hydroxypentyloxy)ethyl)-7α-methyldihydro-1H-inden-4(2H,5H,6H,7H,7αH)-ylidene)ethylidene)spiro[2.5]octane-4,8-diol], in data set [1], the “acetylcholine-induced endothelial-dependent aortic relaxation” value was “improves endothelial function; also recorded: dose-dependent improvement; also recorded: potent in improving endothelial function” and the “sodium nitroprusside (SNP)-induced endothelial-independent relaxation” value (“sodium nitroprusside” below) is “no significant effect”. In data set [1] (treatment with 0.16 and 0.64 μg/kg), the acetylcholine-induced endothelial-dependent relaxation entry was “back to the Sham level”. The “effect on LVW/BW” value in data set [2] (0.16 and 0.64 μg/kg, FIG. 17) was “significantly reduced”. In data set [2] (setting [7]), the “effect on LVW/BW (left ventricle weight to body weight)” value is “dose-dependent effect on reducing”. The “effect on serum Ca” value in data set [3] is listed as “no effect”.
For `C=C1[C@H](O)CC(=C/C=C2\CCCC3(C)C2CCC3[C@@H](C)OCCC(O)(CC)CC)C[C@H]1O` (stereo partly drawn) [Vida-11, (1R,3R)-5-((E)-2-((1S,3αS,7αS)-1-((R)-1-(3-ethyl-3-hydroxypentyloxy)ethyl)-7α-methyldihydro-1H-inden-4(2H, 5H, 6H, 7H, 7αH)-ylidene)ethylidene)-2-methylenecyclohexane-1,3-diol], in data set [1], the “acetylcholine-induced endothelial-dependent aortic relaxation” value is reported as “improves; also recorded: dose-dependent improvement; also recorded: potent in improving endothelial function” and the “sodium nitroprusside” value is reported as “no significant effect”. Moreover, in data set [2] (setting [7]), the “effect on LVW/BW (left ventricle weight to body weight)” value is “reduced LVW/BW at the two lower doses, but not at 0.16 μg/kg”. The “proteinuria (urinary protein concentration and total protein per day)” value in data set [4] is given as “reduce proteinuria; also recorded: significantly reduced proteinuria”.
In the case of `C=C1[C@H](O)CC(=C/C=C2\CCCC3(C)C2CCC3[C@@H](C)OC[C@H](C)C(C)(C)O)C[C@H]1O` (stereo partly drawn) [Vida-5, (1R,3R)-5-((E)-2-((3αS,7αS)-1-((R)-1-((S)-3-hydroxy-2,3-dimethylbutoxy)ethyl)-7α-methyldihydro-1H-inden-4(2H,5H,6H, 7H, 7αH)-ylidene)ethylidene)-2-methylenecyclohexane-1,3-diol], in data set [1], the “acetylcholine-induced endothelial-dependent aortic relaxation” value was “improves; also recorded: dose-dependent improvement; also recorded: potent in improving endothelial function” and the “sodium nitroprusside” value was “no significant effect”. For the same compound, the cardiomyocyte morphology result in data set [2] (0.01 μg/kg) is on record as “improved the morphology of the cardiomyocytes”. For the same compound, in data set [2] (0.04 μg/kg alone, 3×/week, i.p. for 2 weeks), the “effect on LVW/BW” value is “completely normalized LVW/BW”. In addition, the “effect on LVW/BW” value in data set [2] (0.04 μg/kg plus losartan (0.025 mg/ml in drinking water)) is “completely normalized LVW/BW”. Also, in data set [2] (0.16 μg/kg, 3×/week, i.p. for 2 weeks), the cardiomyocyte morphology result is listed as “nearly restored the morphology of the cardiomyocytes back to the Sham level”. Further, the cardiomyocyte diameter entry in data set [2] (0.01-0.64 μg/kg, 2 weeks of treatment, FIG. 19) is given as “decreases cardiomyocytes diameter; also recorded: significantly reduced”. Moreover, in data set [2] (setting [7]), the “effect on LVW/BW (left ventricle weight to body weight)” value was “significantly reduces; also recorded: dose-dependent effect on reducing” and the “effect on LVW/HW (left ventricle weight to heart weight)” value was “significantly reduces; also recorded: dose-dependent effect on reducing”. The “proteinuria (urinary protein concentration and total protein per day)” value in data set [4] is given as “reduce proteinuria; also recorded: significantly reduced proteinuria”. The thrombospondin-1 protein expression result in data set [5] is reported as “suppress; also recorded: significantly reduced”. For the same compound, the thrombomodulin protein expression result in data set [6] is given as “induce; also recorded: increased”.

The values above are taken from patent publication US20180327354A1, “Unnatural Analogues of Calcitriol and Uses Thereof” (Vidasym, Inc., priority 2009, published 2018).
